Converted amounts (≈) assume the structure as drawn. Counter-ions that a name gives are not always drawn. Like-named read-outs stand apart in the source and are kept apart here.
Columns and labels:
[1] = system: C. ammoniagenes ATCC 6872; test: MIC by resazurin microplate assay (broth microdilution); type: cell-based, Corynebacterium ammoniagenes; settings: for MIC: Corynebacterium ammoniagenes, ATCC6872, 16 h
S. pneumoniae ATCC 49619 = test: as above; type: cell-based, Streptococcus pneumoniae; settings: read-out: Minimal inhibitory concentration (MIC) S. pneumoniae
[2] = system: M. tuberculosis ATCC 27,294; test: as above; type: cell-based, Mycobacterium tuberculosis; settings: for MIC: read-out: Minimal inhibitory concentration (MIC) M. tuberculosis
CaFADS RFK activity = molecular target: T1, CaFADS RFK activity (Corynebacterium ammoniagenes, UniProt Q59263); test: RFK activity of CaFADS in the presence of HTS hits (flavins separated by HPLC); type: biochemical; settings: pH 7, read-out: % Residual RFK activity
T1 construct: Recombinant CaFADS was overexpressed in BL21 (DE3) E. coli cells and purified as previously described; made in house; host or cells: E. coli BL21 (DE3)
Experimental: (§1) Then, the RFK and FMNAT reactions were individually assayed in the presence of the HTS hits at 25 °C. Reaction mixtures contained 50 µM ATP, 5 µM RF, 0.4 µM CaFADS in 20 mM PIPES, pH 7.0, 0.8 mM MgCl2, when assaying the RFK activity, and 50 µM ATP, 10 µM FMN, 0.4 µM CaFADS in 20 mM PIPES, pH 7.0, 10 mM MgCl2 when measuring the FMNAT reaction. […] Finally, reactions were stopped by boiling the samples at 100 °C for 5 min, and the precipitated protein was eliminated through centrifugation. The transformation of RF into FMN or FAD was evaluated through flavins separation by HPLC, as previously described. […] When assaying the HTS hits against the FMNAT activity of SpnFADS, similar conditions were used but samples contained 3 mM sodium dithionite to maintain the flavin in its reduced state. Data were processed as previously reported. All the experiments were performed in triplicate.

CaFADS FMNAT activity = molecular target: T2, CaFADS FMNAT activity (Corynebacterium ammoniagenes, UniProt Q59263); test: FMNAT activity of CaFADS: residual activity, IC50, inhibition mechanism (HPLC); type: biochemical; settings: for remaining activity at 250 µM: pH 7, read-out: % Residual FMNAT activity; for remaining activity at 50 µM: read-out: Residual activity (FMNAT); for Ki: global Lineweaver–Burk fit
T2 construct: Recombinant CaFADS was overexpressed in BL21 (DE3) E. coli cells and purified as previously described; made in house; host or cells: E. coli BL21 (DE3)
Experimental: as §1
(§2) Experiments were performed and analysed through HPLC as described above. Positive controls (without any hit compound) were included in every reaction set. DMSO concentration was kept at 2.5% in all samples. All the experiments were performed in triplicate.
All the experiments were carried out in 20 mM PIPES, 10 mM MgCl2, pH 7.0, 2.5% DMSO at 25 °C, being the final reaction volume 500 µl. The reactions were initiated by addition of CaFADS at a final concentration of ∼40 nM, followed by 1 min incubation. The flavin composition of the supernatant was analysed as previously described. All the experiments were performed in triplicate. The effect of the inhibitors on Km and Vmax was determined by fitting the data sets to the Michaelis–Menten model. Additionally, data were globally fit to Lineweaver–Burk equations for competitive, uncompetitive, non-competitive or mixed inhibition, yielding Ki, as well as Ki′ when applying, for each compound (Equations (1–4), respectively).

SpnFADS FMNAT activity = SpnFADS FMNAT activity (Streptococcus pneumoniae, UniProt A0A0H2UPY5); test: biochemical; settings: SpnFADS, 25 °C; for activity at 100 µM: 100 μM of each compound, n = 3, mean ± SD, read-out: FMNAT activity Res. activity; for IC50: compounds assayed 0–100 μM, read-out: FMNAT activity IC50
Experimental: as §1, §2

SpnFADS RFK activity = SpnFADS RFK activity (Streptococcus pneumoniae, UniProt A0A0H2UPY5); test: biochemical; settings: for activity at 100 µM: read-out: RFK activity Res. activity; for IC50: compounds assayed 0–100 μM, read-out: RFK activity IC50
Experimental: as §1, §2

CaFADS = molecular target: T3, CaFADS (Corynebacterium ammoniagenes, UniProt Q59263); test: Isothermal titration calorimetry (ITC) of hits binding to CaFADS; settings: ITC 25 °C, for 24: Site 1–2
T3 construct: Recombinant CaFADS was overexpressed in BL21 (DE3) E. coli cells and purified as previously described; made in house; host or cells: E. coli BL21 (DE3)
Experimental: ITC experiments were performed to characterise the protein’s affinity for the selected compounds, as also the thermodynamic parameters that drive the interaction. Experiments were carried out in an AutoITC200 (MicroCal) thermostated at 25 °C. In these experiments, ∼400 µM of each compound were used to titrate ∼25 µM CaFADS contained in a 200 µL cell. However, when saturation of the protein was not reached, higher concentrations of compounds were employed. The titrations were performed by stepwise injections of the titrating compound. Up to 19 injections of 2 µl were added to the cell sample and mixed using a 1000 rpm stirrer syringe. The compounds and the protein were dissolved in 20 mM PIPES, pH 7.0, 10 mM MgCl2 and degassed prior to titration. DMSO was added to the protein and ligand samples, until reach a final concentration of 3%. The association constant (Ka), the enthalpy variation (ΔH) and the binding stoichiometry (N), were obtained through non-lineal regression of the data to a model for one or two independent binding sites, implemented in Origin 7.0 (OriginLab) as previously described[27]^,[29]. The entropic contribution (−TΔS), the Gibbs free energy (ΔG) and the dissociation constant (Kd) were obtained through essential thermodynamic equations.

[3] = assayed 0.125–64 μM, 6 days at 37 °C, Middlebrook 7H9
[4] = read-out: Minimal inhibitory concentration (MIC) C. ammoniagenes, assayed 0.125–64 μM, 16 h at 37 °C, BHI
[5] = read-out: Minimal inhibitory concentration (MIC) C. ammoniagenes
[6] = Streptococcus pneumoniae, ATCC49619, 10 h
[7] = Mycobacterium tuberculosis, ATCC27, 144 h
[8] = SpnFADS, 100 μM of each compound, 25 °C, n = 3, mean ± SD

SpnFADS RFK activity, sequence (A0A0H2UPY5 entry or part of it): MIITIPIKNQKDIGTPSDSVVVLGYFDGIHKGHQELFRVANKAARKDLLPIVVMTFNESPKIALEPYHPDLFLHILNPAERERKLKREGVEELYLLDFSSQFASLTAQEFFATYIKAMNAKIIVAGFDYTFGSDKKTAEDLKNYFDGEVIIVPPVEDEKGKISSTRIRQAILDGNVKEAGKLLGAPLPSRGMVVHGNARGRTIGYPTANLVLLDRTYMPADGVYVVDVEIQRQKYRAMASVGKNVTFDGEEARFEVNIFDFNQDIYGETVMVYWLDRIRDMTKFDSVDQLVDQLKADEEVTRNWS
SpnFADS FMNAT activity, sequence (A0A0H2UPY5 entry or part of it): as above
T1 sequence (Q59263 whole entry): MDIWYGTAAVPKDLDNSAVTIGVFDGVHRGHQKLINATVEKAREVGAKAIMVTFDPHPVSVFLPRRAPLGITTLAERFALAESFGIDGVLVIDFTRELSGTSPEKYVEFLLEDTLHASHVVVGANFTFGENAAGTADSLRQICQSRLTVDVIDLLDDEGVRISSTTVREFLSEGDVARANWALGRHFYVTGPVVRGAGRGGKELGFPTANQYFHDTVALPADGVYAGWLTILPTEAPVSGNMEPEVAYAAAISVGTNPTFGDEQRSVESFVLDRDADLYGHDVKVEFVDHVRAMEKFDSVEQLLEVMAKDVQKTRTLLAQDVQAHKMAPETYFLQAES
T2 sequence (Q59263 whole entry): as above
T3 sequence (Q59263 whole entry): as above

Compound | MIC [1, 4] [µM] | MIC [1, 5] [µM] | remaining activity at 250 µM (CaFADS RFK activity) [%] | MIC (S. pneumoniae ATCC 49619; [6]) [µM] | remaining activity at 250 µM (CaFADS FMNAT activity) [%] | MIC [2, 7] [µM] | IC50 (CaFADS FMNAT activity) [µM] | remaining activity at 50 µM (CaFADS FMNAT activity) [%] | further results
verteporfin [HTS hit 47] |  |  |  |  |  |  |  |  | Minimal inhibitory concentration (MIC) C. ammoniagenes ([1]; assayed 0.125–64 μM, 16 h at 37 °C, BHI): 2 to 4 µM; MIC (S. pneumoniae ATCC 49619; assayed 0.125–64 μM, 10 h at 37 °C, BHI with 4% FBS): 4 µM; MIC [2, 3]: 8 µM
C/C=C(/C(=C/C)c1ccc(O)cc1)c1ccc(O)cc1 [HTS hit 35, dienestrol] | 2 to 16 (≈ 0.533 to 4.26 µg/mL) | 16 to 32 (≈ 4.26 to 8.52 µg/mL) | ≤ 5 | 64 (≈ 17 µg/mL) | 5 to 50 | > 64 |  |  | 
CCCCCCCCCCCCCCCC[N+](C)(C)CCN(Cc1ccc(OC)cc1)c1ncccn1 [HTS hit 9, thonzonium bromide] | < 2 | 2 | ≤ 5 | 1 to 2 | ≤ 5 | 16 |  |  | activity at 100 µM (SpnFADS FMNAT activity): 7 ± 1%; IC50 (SpnFADS FMNAT activity): 78 ± 6 µM; activity at 100 µM (SpnFADS RFK activity; [8]): 0%; IC50 (SpnFADS RFK activity; SpnFADS, 25 °C): 6 ± 1 µM
CCc1oc2ccccc2c1C(=O)c1cc(Br)c(O)c(Br)c1 [HTS hit 17, benzbromarone] | 2 to 16 (≈ 0.848 to 6.79 µg/mL) | 8 (≈ 3.39 µg/mL) | ≥ 75 | > 64 | ≤ 5 | > 64 | 12.8 ± 3.4 | 33.5 ± 10.1 | 
O=C(O)CCc1nc(-c2ccccc2)c(-c2ccccc2)o1 [HTS hit 43, oxaprozin] |  |  | ≥ 75 |  | ≤ 5 |  | 1 ± 0.5 | 20.3 ± 5.2 | activity at 100 µM (SpnFADS FMNAT activity): 100 ± 15%; IC50 (SpnFADS RFK activity; SpnFADS, 25 °C): 14 ± 2 µM; activity at 100 µM (SpnFADS RFK activity): 32 ± 3%
CCCCC(CC)CNC(=N)NC(=N)NCCCCCCNC(=N)NC(=N)NCC(CC)CCCC (centres unmarked) [HTS hit 33, alexidine dihydrochloride] | < 2 | 0.125 | ≤ 5 | 0.5 | ≤ 5 | 2 to 4 |  |  | activity at 100 µM (SpnFADS FMNAT activity): 93 ± 11%; IC50 (SpnFADS FMNAT activity): > 100 µM; activity at 100 µM (SpnFADS RFK activity; [8]): 26 ± 3%; IC50 (SpnFADS RFK activity; SpnFADS, 25 °C): 33 ± 4 µM; Minimal inhibitory concentration (MIC) M. tuberculosis [2, 3]: below 8 μM
O=C(O)c1cc(/N=N/c2ccc(S(=O)(=O)Nc3ccccn3)cc2)ccc1O [HTS hit 8, sulfasalazine] |  |  | ≥ 75 |  | 5 to 50 |  |  |  | 
Cc1c(Nc2ncccc2C(=O)O)cccc1C(F)(F)F [HTS hit 31, flunixin meglumine] | > 64 | 32 to 64 | ≥ 75 | > 64 | ≤ 5 | > 64 | 6.6 ± 0.6 | 24.5 ± 1.9 | N (binding stoichiometry) (CaFADS; 3% DMSO): ≈ 1; ΔG (CaFADS; average value where N ≈ 2): -6.2 ± 0.6 kcal/mol; ΔH (CaFADS; average value where N ≈ 2): -7.2 ± 0.4 kcal/mol; −TΔS (CaFADS; average value where N ≈ 2): 1.1 ± 0.1 kcal/mol; Kd (CaFADS; Kd, 3% DMSO, average value for two hit molecules where N ≈ 2): 30.9 ± 2.8 µM; Inhibition mechanism (CaFADS FMNAT activity; CaFADS FMNAT, saturating ATP (regarding the FMN substrate)): Non-competitive; Inhibition mechanism (CaFADS FMNAT activity; CaFADS FMNAT, saturating FMN (regarding the ATP substrate)): Mixed; K'i (CaFADS FMNAT activity; CaFADS FMNAT, saturating FMN, varying ATP, binding to the CaFADS-ATP complex): 18.4 ± 4.0 µM; Ki (CaFADS FMNAT activity; CaFADS FMNAT, saturating ATP, varying FMN): 0.09 ± 0.03 µM; Ki (CaFADS FMNAT activity; CaFADS FMNAT, saturating FMN, varying ATP): 3.5 ± 1 µM; apparent kcat (CaFADS FMNAT activity; saturating ATP, varying FMN, inhibitor 1 μM): 0.41 ± 0.0483 s⁻¹; apparent kcat (CaFADS FMNAT activity; saturating ATP, varying FMN, inhibitor 4 μM): 0.302 ± 0.0233 s⁻¹; apparent kcat (CaFADS FMNAT activity; saturating ATP, varying FMN, inhibitor 5 μM): 0.107 ± 0.02 s⁻¹; apparent kcat (CaFADS FMNAT activity; saturating ATP, varying FMN, inhibitor 7 μM): 0.05 ± 0.0067 s⁻¹; apparent kcat (CaFADS FMNAT activity; saturating ATP, varying FMN, inhibitor 10 μM): 0.05 ± 0.0067 s⁻¹; apparent kcat (CaFADS FMNAT activity; saturating FMN, varying ATP, inhibitor 4 μM): 0.328 ± 0.0167 s⁻¹; apparent kcat (CaFADS FMNAT activity; saturating FMN, varying ATP, inhibitor 5 μM): 0.288 ± 0.0183 s⁻¹; apparent kcat (CaFADS FMNAT activity; saturating FMN, varying ATP, inhibitor 7 μM): 0.282 ± 0.01 s⁻¹; apparent kcat (CaFADS FMNAT activity; saturating FMN, varying ATP, inhibitor 10 μM): 0.255 ± 0.0217 s⁻¹; apparent kcat (CaFADS FMNAT activity; saturating FMN, varying ATP, inhibitor 12 μM): 0.23 ± 0.0167 s⁻¹
CC/C(=C(/CC)c1ccc(O)cc1)c1ccc(O)cc1 [HTS hit 32, diethylstilbestrol] | 2 to 16 (≈ 0.537 to 4.29 µg/mL) | 8 (≈ 2.15 µg/mL) | 50 to 75 | 64 (≈ 17.2 µg/mL) | 5 to 50 | > 64 |  |  | 
O=C(O)c1cccnc1Nc1cccc(C(F)(F)F)c1 [HTS hit 11] |  | > 64 | ≥ 75 | > 64 | ≤ 5 | > 64 | 9 ± 1.3 | 34.6 ± 4.9 | 
CN1CCCN=C1/C=C/c1cccc(O)c1 [HTS hit 19, oxantel pamoate] |  |  | ≥ 75 |  | ≤ 5 |  | 20.8 ± 2.6 | 43.3 ± 3.9 | 

From article PMC7012052, “Discovery of antimicrobial compounds targeting bacterial type FAD synthetases” (Journal of Enzyme Inhibition and Medicinal Chemistry, 2017)
